Assays:
[1] = test system: brain levels of cytidine and cytidine-(5')-diphosphate-choline (CDP-choline); details: rats, cytidine 1 g/kg ip, sacrificed after 1 hour, vs placebo
[2] = test system: neuroblastoma/glioma cells (NG 108-15); experiment: Formation of tritiated CDP-choline from tritiated choline in neuroblastoma/glioma cells; format: cell-based; details: NG 108-15 cells, cytidine 25 µM, 90 minutes
From the text: CDP-choline is the immediate precursor for the phosphatidylcholine in membranes of neurons and other cells and its formation controls the production of phosphatidylcholine.

## Nc1ccn([C@@H]2O[C@H](CO)[C@@H](O)[C@H]2O)c(=O)n1 [cytidine]
[1]
  brain CDP-choline levels rose by: about 50%
[2]
  newly-formed CDP-choline in cells incubated with supplemental cytidine vs without cytidine: almost twice as much
